Assay type in all cases: biochemical
In one test the target is T1, JAK1 (Homo sapiens, UniProt P23458).
T1 construct: purchased Invitrogen
Description: JAK1 enzyme inhibition test (LANCE method). The conditions noted are these: 1 μM test compound; for inhibition at 1 µM: read-out: JAK1 enzyme inhibitory activity (%, 1 μM). The method, boiled down:
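Inhibition expressed against no-enzyme wells (100% inhibition), from time-resolved fluorescence at 665 nm after Eu-anti-phosphotyrosine antibody/EDTA detection. Kinase reaction ran 1 h at room temperature, pH 7.5 HEPES buffer, ULight-JAK1 substrate and ATP diluted to 300 nM and 150 μM before addition.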

The target in another test is T2, JAK2 (Homo sapiens, UniProt O60674).
T2 construct: purchased Invitrogen
Nature of the test: JAK2 enzyme inhibition test (LANCE method). The conditions noted are these: 1 μM test compound; for inhibition at 1 µM: read-out: JAK2 enzyme inhibitory activity (%, 1 μM). Summed up:
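TR-FRET (LANCE) read-out, ex 340/em 665 nm with 100 μs delay, after 1 hr room-temperature detection with europium anti-phosphotyrosine antibody and 20 mM EDTA. The preceding 1 hr kinase reaction combined JAK2, ULight-JAK1 substrate and ATP, added as 6 ng/mL, 300 nM and 45 μM solutions; enzyme-free wells defined 100% inhibition.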
Background: Time-resolved FRET reads energy transfer from a long-lived donor to a nearby acceptor.

For another test, the target named is T3, JAK3 (Homo sapiens, UniProt P52333).
T3 construct: purchased Invitrogen
T3 sequence (P52333 1-1124): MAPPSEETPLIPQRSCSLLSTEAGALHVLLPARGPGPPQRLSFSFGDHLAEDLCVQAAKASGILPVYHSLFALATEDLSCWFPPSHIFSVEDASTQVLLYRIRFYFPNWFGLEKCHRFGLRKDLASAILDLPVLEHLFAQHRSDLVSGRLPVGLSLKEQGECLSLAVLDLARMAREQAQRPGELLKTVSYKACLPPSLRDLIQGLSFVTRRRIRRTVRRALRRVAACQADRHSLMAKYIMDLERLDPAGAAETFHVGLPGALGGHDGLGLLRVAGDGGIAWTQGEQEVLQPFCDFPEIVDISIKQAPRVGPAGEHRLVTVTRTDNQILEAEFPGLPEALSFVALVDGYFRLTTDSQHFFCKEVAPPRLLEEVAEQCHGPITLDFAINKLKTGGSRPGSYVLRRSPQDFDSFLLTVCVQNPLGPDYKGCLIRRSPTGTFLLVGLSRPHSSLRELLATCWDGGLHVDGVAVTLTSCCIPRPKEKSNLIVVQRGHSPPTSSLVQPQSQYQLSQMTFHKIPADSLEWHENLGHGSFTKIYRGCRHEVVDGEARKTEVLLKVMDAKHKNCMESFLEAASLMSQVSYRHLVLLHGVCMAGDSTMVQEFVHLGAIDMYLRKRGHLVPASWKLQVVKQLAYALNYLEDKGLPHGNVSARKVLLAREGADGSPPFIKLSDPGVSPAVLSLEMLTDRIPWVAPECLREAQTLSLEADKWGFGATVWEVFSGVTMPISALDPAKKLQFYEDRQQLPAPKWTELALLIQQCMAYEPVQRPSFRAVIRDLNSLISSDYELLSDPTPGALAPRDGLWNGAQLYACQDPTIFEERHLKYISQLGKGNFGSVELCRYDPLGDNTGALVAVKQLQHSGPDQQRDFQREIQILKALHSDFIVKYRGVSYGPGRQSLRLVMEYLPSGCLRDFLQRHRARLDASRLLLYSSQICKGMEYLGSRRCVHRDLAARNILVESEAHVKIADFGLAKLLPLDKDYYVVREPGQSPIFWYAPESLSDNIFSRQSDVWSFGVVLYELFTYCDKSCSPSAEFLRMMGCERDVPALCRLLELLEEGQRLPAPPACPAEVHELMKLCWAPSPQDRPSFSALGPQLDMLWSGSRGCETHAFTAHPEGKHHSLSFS
Nature of the test: JAK3 enzyme inhibition test (LANCE method). The note with it: 1 μM test compound; for inhibition at 1 µM: read-out: JAK3 enzyme inhibitory activity (%, 1 μM). The method, boiled down: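 TR-FRET (LANCE) read: 1 h room-temperature reaction, EDTA quench, Eu-anti-phosphotyrosine antibody, emission 665 nm after 340 nm excitation. Added solutions held 12 ng/mL JAK3, 300 nM ULight-JAK1 substrate and 15 μM ATP (pH 7.5 HEPES). Activity expressed against no-enzyme wells defined as full inhibition.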

Another test deals with T4, TYK2 (Homo sapiens, UniProt P29597).
T4 construct: purchased Invitrogen
Nature of the test: TYK2 enzyme inhibition test (LANCE method). The conditions noted are these: 1 μM test compound; for inhibition at 1 µM: read-out: TYK2 enzyme inhibitory activity (%, 1 μM). Summed up: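 TR-FRET (LANCE) readout: after 1 h room-temperature kinase reaction, EDTA plus 4 nM Eu-labelled anti-phosphotyrosine antibody added, signal at 665 nm (340 nm excitation). Reaction combined TYK2, ULight-JAK1 substrate and ATP, prepared at 375 ng/mL, 300 nM and 30 μM before addition, in pH 7.5 HEPES/MgCl2 buffer; enzyme-free wells define full inhibition.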

T1 sequence (P23458 whole entry): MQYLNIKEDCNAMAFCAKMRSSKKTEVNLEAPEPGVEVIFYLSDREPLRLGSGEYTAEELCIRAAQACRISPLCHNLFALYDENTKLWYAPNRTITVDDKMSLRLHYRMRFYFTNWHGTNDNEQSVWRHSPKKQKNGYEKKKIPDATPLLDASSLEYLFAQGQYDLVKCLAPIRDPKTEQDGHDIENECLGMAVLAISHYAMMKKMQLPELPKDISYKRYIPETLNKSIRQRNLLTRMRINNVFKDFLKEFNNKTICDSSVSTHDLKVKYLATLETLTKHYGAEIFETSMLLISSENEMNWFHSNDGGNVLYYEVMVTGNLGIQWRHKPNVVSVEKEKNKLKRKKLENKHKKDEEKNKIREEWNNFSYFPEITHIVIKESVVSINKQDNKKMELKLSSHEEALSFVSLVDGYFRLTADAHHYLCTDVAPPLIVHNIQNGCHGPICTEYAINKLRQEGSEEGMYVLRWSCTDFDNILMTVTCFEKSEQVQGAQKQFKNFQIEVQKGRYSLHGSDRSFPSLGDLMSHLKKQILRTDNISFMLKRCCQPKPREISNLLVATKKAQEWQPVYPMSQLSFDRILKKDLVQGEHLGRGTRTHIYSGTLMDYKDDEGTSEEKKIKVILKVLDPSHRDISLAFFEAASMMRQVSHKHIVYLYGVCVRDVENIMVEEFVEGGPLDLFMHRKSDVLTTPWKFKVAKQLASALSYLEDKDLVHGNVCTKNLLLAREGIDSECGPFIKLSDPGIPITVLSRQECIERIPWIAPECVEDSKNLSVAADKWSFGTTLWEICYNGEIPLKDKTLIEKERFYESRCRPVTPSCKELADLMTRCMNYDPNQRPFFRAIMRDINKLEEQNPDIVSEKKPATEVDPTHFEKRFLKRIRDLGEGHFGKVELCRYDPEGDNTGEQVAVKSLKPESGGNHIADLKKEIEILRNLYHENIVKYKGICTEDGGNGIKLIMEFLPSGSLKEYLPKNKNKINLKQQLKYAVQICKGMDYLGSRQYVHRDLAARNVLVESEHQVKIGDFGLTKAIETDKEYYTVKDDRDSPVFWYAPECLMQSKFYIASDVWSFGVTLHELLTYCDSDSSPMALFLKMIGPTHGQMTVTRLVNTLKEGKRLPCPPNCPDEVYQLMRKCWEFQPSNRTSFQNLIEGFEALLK
T4 sequence (P29597 whole entry): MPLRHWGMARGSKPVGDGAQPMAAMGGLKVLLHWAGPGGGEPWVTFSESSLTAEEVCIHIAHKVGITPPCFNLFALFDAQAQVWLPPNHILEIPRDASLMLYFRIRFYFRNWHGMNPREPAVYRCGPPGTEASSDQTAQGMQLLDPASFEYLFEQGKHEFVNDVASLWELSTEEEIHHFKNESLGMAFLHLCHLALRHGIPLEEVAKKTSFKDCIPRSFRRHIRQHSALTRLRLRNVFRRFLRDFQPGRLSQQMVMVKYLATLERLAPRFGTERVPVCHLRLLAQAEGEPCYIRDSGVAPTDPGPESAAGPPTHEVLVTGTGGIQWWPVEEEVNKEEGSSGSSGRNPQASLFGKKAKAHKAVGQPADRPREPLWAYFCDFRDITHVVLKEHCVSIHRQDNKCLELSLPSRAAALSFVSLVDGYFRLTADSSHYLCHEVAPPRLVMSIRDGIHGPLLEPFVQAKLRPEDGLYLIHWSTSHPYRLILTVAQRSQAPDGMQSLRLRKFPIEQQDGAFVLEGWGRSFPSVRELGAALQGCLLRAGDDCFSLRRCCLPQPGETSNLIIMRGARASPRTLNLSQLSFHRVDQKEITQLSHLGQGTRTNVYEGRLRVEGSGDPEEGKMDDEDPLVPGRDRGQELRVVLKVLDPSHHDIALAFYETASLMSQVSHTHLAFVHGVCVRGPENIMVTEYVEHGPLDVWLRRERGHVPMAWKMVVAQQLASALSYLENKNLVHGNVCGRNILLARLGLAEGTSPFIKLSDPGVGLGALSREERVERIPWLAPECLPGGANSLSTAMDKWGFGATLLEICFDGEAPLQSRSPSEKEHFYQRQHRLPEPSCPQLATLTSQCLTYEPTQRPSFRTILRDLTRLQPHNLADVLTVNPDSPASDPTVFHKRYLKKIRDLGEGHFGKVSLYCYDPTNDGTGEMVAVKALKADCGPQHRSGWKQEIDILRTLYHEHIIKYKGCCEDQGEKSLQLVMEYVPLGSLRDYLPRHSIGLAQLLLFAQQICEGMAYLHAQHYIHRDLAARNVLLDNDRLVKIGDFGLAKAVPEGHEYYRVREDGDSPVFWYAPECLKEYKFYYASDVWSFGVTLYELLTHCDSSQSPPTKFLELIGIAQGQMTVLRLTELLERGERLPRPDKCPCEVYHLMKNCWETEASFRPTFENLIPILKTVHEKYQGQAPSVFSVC
T2 sequence (O60674 whole entry): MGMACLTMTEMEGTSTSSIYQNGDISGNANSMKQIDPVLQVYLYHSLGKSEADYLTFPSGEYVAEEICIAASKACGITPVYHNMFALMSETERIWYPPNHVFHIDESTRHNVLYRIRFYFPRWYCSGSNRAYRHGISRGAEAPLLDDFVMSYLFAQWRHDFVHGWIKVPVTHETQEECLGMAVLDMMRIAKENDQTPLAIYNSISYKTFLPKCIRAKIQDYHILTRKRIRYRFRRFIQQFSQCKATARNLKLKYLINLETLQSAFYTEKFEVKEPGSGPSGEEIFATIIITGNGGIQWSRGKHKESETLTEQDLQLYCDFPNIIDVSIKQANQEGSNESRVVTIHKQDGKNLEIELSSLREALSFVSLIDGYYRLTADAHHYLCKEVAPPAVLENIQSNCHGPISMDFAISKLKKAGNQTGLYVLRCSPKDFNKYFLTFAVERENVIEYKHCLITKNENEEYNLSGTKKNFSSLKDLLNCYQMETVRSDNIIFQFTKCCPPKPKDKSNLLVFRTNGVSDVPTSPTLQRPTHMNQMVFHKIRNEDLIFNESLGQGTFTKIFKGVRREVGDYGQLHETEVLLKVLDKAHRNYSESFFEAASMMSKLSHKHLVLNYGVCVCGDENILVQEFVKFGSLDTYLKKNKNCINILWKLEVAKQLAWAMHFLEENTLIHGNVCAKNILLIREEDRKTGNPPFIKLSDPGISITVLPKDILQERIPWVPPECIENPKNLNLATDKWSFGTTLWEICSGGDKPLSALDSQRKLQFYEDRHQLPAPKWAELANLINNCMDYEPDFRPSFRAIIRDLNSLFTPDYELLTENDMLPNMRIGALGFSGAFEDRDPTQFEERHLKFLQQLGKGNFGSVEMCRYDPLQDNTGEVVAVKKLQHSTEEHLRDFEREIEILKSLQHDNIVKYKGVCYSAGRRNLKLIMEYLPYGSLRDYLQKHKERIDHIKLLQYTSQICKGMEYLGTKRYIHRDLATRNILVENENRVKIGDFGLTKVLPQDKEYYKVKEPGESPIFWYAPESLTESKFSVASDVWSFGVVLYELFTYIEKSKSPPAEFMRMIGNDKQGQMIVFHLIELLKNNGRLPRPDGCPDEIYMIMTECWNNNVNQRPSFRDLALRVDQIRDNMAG

Turning to `CC(C)[C@H](C)n1cc(-c2cc(N3CCOCC3)n(C)n2)c2[nH]nc(N)c2c1=O` [Example 41, 3-amino-5-((2S)-3-methylbutan-2-yl)-7-(1-methyl-5-(morpholin-4-yl)-1H-pyrazol-3-yl)-1,5-dihydro-4H-pyrazolo[4,3-c]pyridin-4-one], the inhibition at 1 µM came to 97% on JAK1, 99% on JAK2, 100% on JAK3 and 101% at TYK2.
Taken in the same sequence, the figures for `COC1(c2cc(-c3cn([C@@H](C)C4CC4)c(=O)c4c(N)n[nH]c34)nn2C)CN(S(=O)(=O)C(C)C)C1` [Example 98, 3-amino-5-((1S)-1-cyclopropylethyl)-7-(5-(1-(isopropylsulfonyl)-3-methoxyazetidin-3-yl)-1-methyl-1H-pyrazol-3-yl)-1,5-dihydro-4H-pyrazolo[4,3-c]pyridin-4-one] were 97%, 100%, 100% and 100%.
For `Cn1nc(-c2cn(C(C3CC3)C3CC3)c(=O)c3c(N)n[nH]c23)cc1C1=CCCCC1` [Example 147, 3-amino-7-(5-(cyclohex-1-en-1-yl)-1-methyl-1H-pyrazol-3-yl)-5-(dicyclopropylmethyl)-1,5-dihydro-4H-pyrazolo[4,3-c]pyridin-4-one], in that order: 101%, 101%, 103% and 110%.
For `C[C@@H](C1CC1)n1cc(-c2cc(N3CCC(C)(O)CC3)n(C)n2)c2[nH]nc(N)c2c1=O` [Example 8, 3-amino-5-((1S)-1-cyclopropylethyl)-7-(5-(4-hydroxy-4-methylpiperidin-1-yl)-1-methyl-1H-pyrazol-3-yl)-1,5-dihydro-4H-pyrazolo[4,3-c]pyridin-4-one], in that order: 99%, 99%, 100% and 99%.
As for `Cn1nc(-c2cn(C3CCCC3(C)C)c(=O)c3c(N)n[nH]c23)cc1CN1CCS(=O)(=O)CC1` (racemic) [Example 72, 3-amino-5-(2,2-dimethylcyclopentyl)-7-(5-((1,1-dioxidothiomorpholin-4-yl)methyl)-1-methyl-1H-pyrazol-3-yl)-1,5-dihydro-4H-pyrazolo[4,3-c]pyridin-4-one], the inhibition at 1 µM was 99% at JAK1, 100% on JAK2, 100% on JAK3 and 100% on TYK2.
As for `COC1(c2cc(-c3cn(-c4c(F)cccc4F)c(=O)c4c(N)n[nH]c34)nn2C)CN(S(=O)(=O)C(C)C)C1` [Example 144, 3-amino-5-(2,6-difluorophenyl)-7-(5-(1-(isopropylsulfonyl)-3-methoxyazetidin-3-yl)-1-methyl-1H-pyrazol-3-yl)-1,5-dihydro-4H-pyrazolo[4,3-c]pyridin-4-one], the inhibition at 1 µM on JAK1 was determined as 92%; on JAK2 it was 98%; on JAK3, 99%; at TYK2, 100%.
For `COC1(c2cc(-c3cn(C(C4CC4)C4CC4)c(=O)c4c(N)n[nH]c34)nn2C)CN(C(=O)C(C)C)C1` [Example 89, 3-amino-5-(dicyclopropylmethyl)-7-(5-(1-isobutyryl-3-methoxyazetidin-3-yl)-1-methyl-1H-pyrazol-3-yl)-1,5-dihydro-4H-pyrazolo[4,3-c]pyridin-4-one], the inhibition at 1 µM amounted to 97% on JAK1, 99% on JAK2, 99% on JAK3 and 100% on TYK2.
Regarding `Cn1nc(-c2cn(-c3c(F)cccc3F)c(=O)c3c(N)n[nH]c23)cc1N1CCC(C)(C#N)CC1` [Example 127, 1-(3-(3-amino-5-(2,6-difluorophenyl)-4-oxo-4,5-dihydro-1H-pyrazolo[4,3-c]pyridin-7-yl)-1-methyl-1H-pyrazol-5-yl)-4-methylpiperidine-4-carbonitrile], the inhibition at 1 µM on JAK1 worked out at 99%; at JAK2, 99%; on JAK3, 100%; on TYK2, 100%.
Consider `CC(C)C(n1cc(-c2cc(N3CCOCC3)n(C)n2)c2[nH]nc(N)c2c1=O)C(F)(F)F` (stereo not shown) [Example 82, 3-amino-7-(1-methyl-5-(morpholin-4-yl)-1H-pyrazol-3-yl)-5-(1,1,1-trifluoro-3-methylbutan-2-yl)-1,5-dihydro-4H-pyrazolo[4,3-c]pyridin-4-one], for which the inhibition at 1 µM stood at 89% on JAK1, 87% at JAK2, 97% at JAK3 and 99% on TYK2.
For `C[C@@H](C1CC1)n1cc(-c2cc(N3CCS(=O)(=O)CC3)n(C)n2)c2[nH]nc(N)c2c1=O` [Example 96, 3-amino-5-((1S)-1-cyclopropylethyl)-7-(5-(1,1-dioxidothiomorpholin-4-yl)-1-methyl-1H-pyrazol-3-yl)-1,5-dihydro-4H-pyrazolo[4,3-c]pyridin-4-one], in that order: 99%, 100%, 100% and 100%.
For the compound `C[C@H](C1CC1)n1cc(-c2cc(N3CCC(C)(O)CC3)n(C)n2)c2[nH]nc(N)c2c1=O` [Example 133, 3-amino-5-((1R)-1-cyclopropylethyl)-7-(5-(4-hydroxy-4-methylpiperidin-1-yl)-1-methyl-1H-pyrazol-3-yl)-1,5-dihydro-4H-pyrazolo[4,3-c]pyridin-4-one], the inhibition at 1 µM on JAK1 is 91%; at JAK2 it was 87%; on JAK3, 96%; on TYK2, 99%.
`Cn1nc(-c2cn(C(C3CC3)C(F)(F)F)c(=O)c3c(N)n[nH]c23)cc1N1CCOCC1` (stereo not shown) [Example 83, 3-amino-5-(1-cyclopropyl-2,2,2-trifluoroethyl)-7-(1-methyl-5-(morpholin-4-yl)-1H-pyrazol-3-yl)-1,5-dihydro-4H-pyrazolo[4,3-c]pyridin-4-one]: the inhibition at 1 µM at JAK1 stood at 99%; on JAK2, 100%; at JAK3, 100%; on TYK2, 100%.
In the case of `Cn1nc(-c2cn(C3CCCC3(C)C)c(=O)c3c(N)n[nH]c23)cc1CN1CCS(=O)(=O)CC1` (stereo not shown) [Example 75, 3-amino-5-(2,2-dimethylcyclopentyl)-7-(5-((1,1-dioxidothiomorpholin-4-yl)methyl)-1-methyl-1H-pyrazol-3-yl)-1,5-dihydro-4H-pyrazolo[4,3-c]pyridin-4-one], the “JAK1 enzyme inhibitory activity (%, 1 μM)” value at JAK1 (1 µM) is on record as 66%. Moreover, at JAK2 (1 µM), the “JAK2 enzyme inhibitory activity (%, 1 μM)” value is 87%. For the same compound, the “JAK3 enzyme inhibitory activity (%, 1 μM)” value at JAK3 (1 µM) is recorded as 93%. Also, the “TYK2 enzyme inhibitory activity (%, 1 μM)” value at TYK2 (1 µM) came to 92%.
